Source: patent EP3133117A1, “WATER-BASED POLYMER SYSTEM FOR LABELING ADHESIVE APPLICATIONS” (Henkel AG & Co. KGaA, priority 2015, dated 2017)
Converted amounts (≈) assume the structure as drawn. Like-named read-outs stand apart in the source and are kept apart here.

Tests used:
[1] = Solubility of the organic additives in water; settings: for solubility: water, 25 °C, thermodynamic from solid
Description: For the determination of the solubility of the organic additives described herein, the GC-based method described above in connection with the solubilities of the monomers may be used. […] The method is basically measuring residual amount of CD in a saturated solution after drying.

[2] = cyclodextrins; values taken from Sabadini et al.; 25°C; cited from earlier work

## OCCCCO [1,4-butandiol]
[1]; additives other than cyclodextrins, 25°C
  Solubility in water: miscible

## CCCCCO [1-pentanol]
[1]
  solubility: 22.4 mg/mL (≈ 254 mM)

## CC(=O)OCC(COC(C)=O)OC(C)=O [1,2,3-propanetriol triacetate]
[1]
  solubility: 72 mg/mL

## OC[C@H]1O[C@@H]2O[C@H]3[C@H](O)[C@@H](O)[C@@H](O[C@H]4[C@H](O)[C@@H](O)[C@@H](O[C@H]5[C@H](O)[C@@H](O)[C@@H](O[C@H]6[C@H](O)[C@@H](O)[C@@H](O[C@H]7[C@H](O)[C@@H](O)[C@@H](O[C@H]8[C@H](O)[C@@H](O)[C@@H](O[C@H]9[C@H](O)[C@@H](O)[C@@H](O[C@H]1[C@H](O)[C@H]2O)O[C@@H]9CO)O[C@@H]8CO)O[C@@H]7CO)O[C@@H]6CO)O[C@@H]5CO)O[C@@H]4CO)O[C@@H]3CO [γ-cyclodextrin]
[2]
  Solubility in water: 249.2 mg/mL (≈ 192 mM)

## OC[C@H]1O[C@@H]2O[C@H]3[C@H](O)[C@@H](O)[C@@H](O[C@H]4[C@H](O)[C@@H](O)[C@@H](O[C@H]5[C@H](O)[C@@H](O)[C@@H](O[C@H]6[C@H](O)[C@@H](O)[C@@H](O[C@H]7[C@H](O)[C@@H](O)[C@@H](O[C@H]1[C@H](O)[C@H]2O)O[C@@H]7CO)O[C@@H]6CO)O[C@@H]5CO)O[C@@H]4CO)O[C@@H]3CO [α-cyclodextrin]
[2]
  Solubility in water: 129.5 mg/mL (≈ 133 mM)

## CCCCCCCO [Heptanol]
[1]
  solubility: 1.74 mg/mL (≈ 15 mM)
